Data as given in ChEMBL document CHEMBL3045111, “Synthesis and herbicidal activities of novel 3-(substituted benzyloxy or phenoxy)-6-methyl-4-(3-trifluoromethylphenyl)pyridazine derivatives” (2012).
Calls of active or inactive are those of the source. The rule behind the calls is not given here.

Tests used:
[1] = system: Brassica rapa subsp. oleifera; test: Post-emergence herbicidal activity against one-leaf stage Brassica rapa subsp. oleifera under greenhouse condition assessed as complete bleaching of leaves at 600 g /ha measured after 24 days by spray method; format: functional, organism-based
[2] = system: Brassica rapa subsp. oleifera; test: Post-emergence herbicidal activity against one-leaf stage Brassica rapa subsp. oleifera under greenhouse condition at 75 g /ha measured after 24 days by spray method; format: functional; details: 576 h, read-out: GI
[3] = system: Brassica rapa subsp. oleifera; test: Post-emergence herbicidal activity against one-leaf stage Brassica rapa subsp. oleifera under greenhouse condition at 150 g /ha measured after 24 days by spray method; format: functional; details: 576 h, read-out: GI
[4] = system: Brassica rapa subsp. oleifera; test: Post-emergence herbicidal activity against one-leaf stage Brassica rapa subsp. oleifera under greenhouse condition at 300 g /ha measured after 24 days by spray method; format: functional; details: 576 h, read-out: GI
[5] = system: Brassica rapa subsp. oleifera; test: Post-emergence herbicidal activity against one-leaf stage Brassica rapa subsp. oleifera under greenhouse condition at 600 g /ha measured after 24 days by spray method; format: functional; details: 576 h, read-out: GI
[6] = system: Digitaria; test: Post-emergence herbicidal activity against one-leaf stage of Digitaria adscendens under greenhouse condition at 750 g /ha measured after 24 days by spray method; format: functional; details: in Digitaria adscendens, 576 h, read-out: GI
[7] = system: Echinochloa crus-galli; test: Post-emergence herbicidal activity against one-leaf stage of Echinochloa crus-galli (barnyard grass) under greenhouse condition at 750 g /ha measured after 24 days by spray method; format: functional; details: 576 h, read-out: GI
[8] = system: Amaranthus retroflexus; test: Post-emergence herbicidal activity against one-leaf stage of Amaranthus retroflexus under greenhouse condition at 750 g /ha measured after 24 days by spray method; format: functional; details: 576 h, read-out: GI
[9] = system: Brassica rapa subsp. oleifera; test: Post-emergence herbicidal activity against one-leaf stage Brassica rapa subsp. oleifera under greenhouse condition at 750 g /ha measured after 24 days by spray method; format: functional; details: 576 h, read-out: GI
[10] = system: Digitaria; test: Pre-emergence herbicidal activity against Digitaria adscendens under greenhouse condition at 750 g /ha measured after 24 days by spray method; format: functional; details: in Digitaria adscendens, 576 h, read-out: GI
[11] = system: Echinochloa crus-galli; test: Pre-emergence herbicidal activity against Echinochloa crus-galli (barnyard grass) under greenhouse condition at 750 g /ha measured after 24 days by spray method; format: functional; details: 576 h, read-out: GI
[12] = system: Amaranthus retroflexus; test: Pre-emergence herbicidal activity against Amaranthus retroflexus under greenhouse condition at 750 g /ha measured after 24 days by spray method; format: functional; details: 576 h, read-out: GI
[13] = system: Brassica rapa subsp. oleifera; test: Pre-emergence herbicidal activity against Brassica rapa subsp. oleifera under greenhouse condition at 750 g /ha measured after 24 days by spray method; format: functional; details: 576 h, read-out: GI
[14] = system: Spirodela polyrhiza; test: Bleaching herbicidal activity in Spirodela polyrhiza fronds cultured in compound-containing in medium assessed as chlorophyll inhibition at 1 ug/ml after 7 days; format: functional; details: 168 h
[15] = system: Spirodela polyrhiza; test: Bleaching herbicidal activity in Spirodela polyrhiza fronds cultured in compound-containing in medium assessed as chlorophyll inhibition at 10 ug/ml after 7 days; format: functional; details: 168 h
[16] = system: Amaranthus retroflexus; test: Post-emergence herbicidal activity against one-leaf stage Amaranthus retroflexus under greenhouse condition assessed as complete bleaching of leaves at 150 g /ha measured after 24 days by spray method; format: functional, organism-based
[17] = system: Amaranthus retroflexus; test: Post-emergence herbicidal activity against one-leaf stage Amaranthus retroflexus under greenhouse condition assessed as complete bleaching of leaves at 300 g /ha measured after 24 days by spray method; format: functional, organism-based
[18] = system: Amaranthus retroflexus; test: Post-emergence herbicidal activity against one-leaf stage Amaranthus retroflexus under greenhouse condition assessed as complete bleaching of leaves at 600 g /ha measured after 24 days by spray method; format: functional, organism-based
[19] = system: Brassica rapa subsp. oleifera; test: Post-emergence herbicidal activity against one-leaf stage Brassica rapa subsp. oleifera under greenhouse condition assessed as complete bleaching of leaves at 75 g /ha measured after 24 days by spray method; format: functional, organism-based
[20] = system: Brassica rapa subsp. oleifera; test: Post-emergence herbicidal activity against one-leaf stage Brassica rapa subsp. oleifera under greenhouse condition assessed as complete bleaching of leaves at 150 g /ha measured after 24 days by spray method; format: functional, organism-based
[21] = system: Brassica rapa subsp. oleifera; test: Post-emergence herbicidal activity against one-leaf stage Brassica rapa subsp. oleifera under greenhouse condition assessed as complete bleaching of leaves at 300 g /ha measured after 24 days by spray method; format: functional, organism-based
[22] = system: Amaranthus retroflexus; test: Post-emergence herbicidal activity against one-leaf stage Amaranthus retroflexus under greenhouse condition at 75 g /ha measured after 24 days by spray method; format: functional; details: 576 h, read-out: GI
[23] = system: Amaranthus retroflexus; test: Post-emergence herbicidal activity against one-leaf stage Amaranthus retroflexus under greenhouse condition at 150 g /ha measured after 24 days by spray method; format: functional; details: 576 h, read-out: GI
[24] = system: Amaranthus retroflexus; test: Post-emergence herbicidal activity against one-leaf stage Amaranthus retroflexus under greenhouse condition at 300 g /ha measured after 24 days by spray method; format: functional; details: 576 h, read-out: GI
[25] = system: Amaranthus retroflexus; test: Post-emergence herbicidal activity against one-leaf stage Amaranthus retroflexus under greenhouse condition at 600 g /ha measured after 24 days by spray method; format: functional; details: 576 h, read-out: GI

**Q.** For `Cc1cccc(Oc2nnc(C)cc2-c2cccc(C(F)(F)F)c2)c1`, which Activity [1] is on record?
**A.** Active

**Q.** What about the inhibition of growth at 75 g/ha [2] of the same compound?
**A.** 46%

**Q.** What about the inhibition of growth at 150 g/ha [3] of the same compound?
**A.** 51%

**Q.** And the inhibition of growth at 300 g/ha [4]?
**A.** 63%

**Q.** What about the inhibition of growth at 600 g/ha [5] of the same compound?
**A.** 70%

**Q.** And the inhibition of growth at 750 g/ha [6]?
**A.** 81%

**Q.** What about the inhibition of growth at 750 g/ha [7] of the same compound?
**A.** 40%

**Q.** And the inhibition of growth at 750 g/ha [8]?
**A.** 55%

**Q.** What about the inhibition of growth at 750 g/ha [9] of the same compound?
**A.** 100%

**Q.** And the inhibition of growth at 750 g/ha [10]?
**A.** 43%

**Q.** And the inhibition of growth at 750 g/ha [11]?
**A.** 29%

**Q.** What about the inhibition of growth at 750 g/ha [12] of the same compound?
**A.** 0%

**Q.** What about the inhibition of growth at 750 g/ha [13] of the same compound?
**A.** 3%

**Q.** What about the inhibition at 1 µg/mL [14] of the same compound?
**A.** 79%

**Q.** And the inhibition at 10 µg/mL [15]?
**A.** 84%

**Q.** And the Activity [16]?
**A.** Active

**Q.** What about the Activity [17] of the same compound?
**A.** Active

**Q.** And the Activity [18]?
**A.** Active

**Q.** And the Activity [19]?
**A.** Active

**Q.** What about the Activity [20] of the same compound?
**A.** Active

**Q.** What about the Activity [21] of the same compound?
**A.** Active

**Q.** What about the inhibition of growth at 75 g/ha [22] of the same compound?
**A.** 29%

**Q.** And the inhibition of growth at 150 g/ha [23]?
**A.** 34%

**Q.** And the inhibition of growth at 300 g/ha [24]?
**A.** 38%

**Q.** And the inhibition of growth at 600 g/ha [25]?
**A.** 43%

**Q.** `Cc1cc(-c2cccc(C(F)(F)F)c2)c(Oc2cccc(C(F)(F)F)c2)nn1` was tested. Which Activity [1] did it give?
**A.** Active

**Q.** What about the inhibition of growth at 75 g/ha [2] of the same compound?
**A.** 39%

**Q.** What about the inhibition of growth at 150 g/ha [3] of the same compound?
**A.** 52%

**Q.** And the inhibition of growth at 300 g/ha [4]?
**A.** 58%

**Q.** And the inhibition of growth at 600 g/ha [5]?
**A.** 66%

**Q.** And the inhibition of growth at 750 g/ha [6]?
**A.** 62%

**Q.** What about the inhibition of growth at 750 g/ha [7] of the same compound?
**A.** 38%

**Q.** What about the inhibition of growth at 750 g/ha [8] of the same compound?
**A.** 79%

**Q.** And the inhibition of growth at 750 g/ha [9]?
**A.** 99%

**Q.** And the inhibition of growth at 750 g/ha [10]?
**A.** 7%

**Q.** And the inhibition of growth at 750 g/ha [11]?
**A.** 0%

**Q.** And the inhibition of growth at 750 g/ha [12]?
**A.** 0%

**Q.** And the inhibition of growth at 750 g/ha [13]?
**A.** 0%

**Q.** And the inhibition at 1 µg/mL [14]?
**A.** 84%

**Q.** And the inhibition at 10 µg/mL [15]?
**A.** 92%

**Q.** What about the Activity [16] of the same compound?
**A.** Active

**Q.** And the Activity [17]?
**A.** Active

**Q.** What about the Activity [18] of the same compound?
**A.** Active

**Q.** And the Activity [19]?
**A.** Active

**Q.** And the Activity [20]?
**A.** Active

**Q.** And the Activity [21]?
**A.** Active

**Q.** What about the inhibition of growth at 75 g/ha [22] of the same compound?
**A.** 19%

**Q.** And the inhibition of growth at 150 g/ha [23]?
**A.** 49%

**Q.** And the inhibition of growth at 300 g/ha [24]?
**A.** 70%

**Q.** And the inhibition of growth at 600 g/ha [25]?
**A.** 94%

**Q.** With `Cc1ccc(Oc2nnc(C)cc2-c2cccc(C(F)(F)F)c2)cc1` as the compound, how does the Activity [1] read?
**A.** Active

**Q.** And the inhibition of growth at 75 g/ha [2]?
**A.** 56%

**Q.** What about the inhibition of growth at 150 g/ha [3] of the same compound?
**A.** 67%

**Q.** What about the inhibition of growth at 300 g/ha [4] of the same compound?
**A.** 89%

**Q.** What about the inhibition of growth at 600 g/ha [5] of the same compound?
**A.** 97%

**Q.** What about the inhibition of growth at 750 g/ha [6] of the same compound?
**A.** 30%

**Q.** And the inhibition of growth at 750 g/ha [7]?
**A.** 47%

**Q.** And the inhibition of growth at 750 g/ha [8]?
**A.** 84%

**Q.** What about the inhibition of growth at 750 g/ha [9] of the same compound?
**A.** 100%

**Q.** And the inhibition of growth at 750 g/ha [10]?
**A.** 44%

**Q.** And the inhibition of growth at 750 g/ha [11]?
**A.** 0%

**Q.** What about the inhibition of growth at 750 g/ha [12] of the same compound?
**A.** 0%

**Q.** What about the inhibition of growth at 750 g/ha [13] of the same compound?
**A.** 13%

**Q.** And the inhibition at 1 µg/mL [14]?
**A.** 82%

**Q.** What about the inhibition at 10 µg/mL [15] of the same compound?
**A.** 94%

**Q.** And the Activity [16]?
**A.** Active

**Q.** What about the Activity [17] of the same compound?
**A.** Active

**Q.** What about the Activity [18] of the same compound?
**A.** Active

**Q.** And the Activity [19]?
**A.** Active

**Q.** And the Activity [20]?
**A.** Active

**Q.** What about the Activity [21] of the same compound?
**A.** Active

**Q.** And the inhibition of growth at 75 g/ha [22]?
**A.** 5%

**Q.** And the inhibition of growth at 150 g/ha [23]?
**A.** 47%

**Q.** What about the inhibition of growth at 300 g/ha [24] of the same compound?
**A.** 58%

**Q.** What about the inhibition of growth at 600 g/ha [25] of the same compound?
**A.** 76%
